Patent US9550782B2, “Compounds and methods for treating diabetes” (Medivation Technologies, Inc., priority 2011, dated 2017)
Values joined by “and” are separate entries in the source; they are usually repeats but may differ in a detail not shown here. Equal values may be shown once.

Columns and labels:
[1] = target: T1, human recombinant adrenergic α2B receptor (Homo sapiens, UniProt P18089); test: Radioligand binding, adrenergic α2B ([3H]Rauwolscine)
T1 construct: expressed in transfected cells; host or cells: CHO-K1
T1 sequence (P18089 1-450): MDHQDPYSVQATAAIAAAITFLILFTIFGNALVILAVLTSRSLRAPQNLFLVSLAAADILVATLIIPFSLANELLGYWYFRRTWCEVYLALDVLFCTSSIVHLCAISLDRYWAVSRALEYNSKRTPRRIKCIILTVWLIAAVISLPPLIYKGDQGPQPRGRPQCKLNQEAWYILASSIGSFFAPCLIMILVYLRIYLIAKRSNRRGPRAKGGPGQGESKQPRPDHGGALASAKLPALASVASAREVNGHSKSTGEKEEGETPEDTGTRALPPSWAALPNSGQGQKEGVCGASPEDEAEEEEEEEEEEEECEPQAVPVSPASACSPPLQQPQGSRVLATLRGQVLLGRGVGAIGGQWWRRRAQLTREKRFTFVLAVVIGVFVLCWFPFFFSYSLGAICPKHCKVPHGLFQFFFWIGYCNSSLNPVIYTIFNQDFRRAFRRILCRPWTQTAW
Outline: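 Values are percent inhibition of specific radioligand binding. The receptor, expressed in CHO-K1 cells, was exposed to 2.5 nM [3H]Rauwolscine at 25° C for 60 min, with 10 μM Prazosin marking non-specific binding.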

[2] = target: T2, human recombinant adrenergic α2A receptor (Homo sapiens, UniProt P08913); test: Radioligand binding, adrenergic α2A ([3H]MK-912); conditions: 0.1 μM compound, [3H]MK-912
T2 construct: expressed in transfected cells; host or cells: insect Sf9 cells
T2 sequence (P08913 1-465): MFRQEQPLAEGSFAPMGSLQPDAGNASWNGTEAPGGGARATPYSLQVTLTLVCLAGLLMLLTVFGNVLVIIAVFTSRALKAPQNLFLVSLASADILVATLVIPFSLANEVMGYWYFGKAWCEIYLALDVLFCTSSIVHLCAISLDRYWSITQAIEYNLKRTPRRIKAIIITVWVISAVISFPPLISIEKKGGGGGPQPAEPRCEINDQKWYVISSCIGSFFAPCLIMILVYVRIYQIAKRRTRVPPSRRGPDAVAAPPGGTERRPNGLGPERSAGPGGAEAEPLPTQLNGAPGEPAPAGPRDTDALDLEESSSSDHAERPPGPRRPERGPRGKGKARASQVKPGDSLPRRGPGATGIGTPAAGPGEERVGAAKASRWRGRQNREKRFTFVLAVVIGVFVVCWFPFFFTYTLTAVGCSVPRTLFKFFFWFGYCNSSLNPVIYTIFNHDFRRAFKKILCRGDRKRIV
Outline: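 Receptor expressed in Sf9 cells, in 50 mM Tris-HCl pH 7.4, 12.5 mM MgCl2, 2 mM EDTA; compounds incubated with 1 nM [3H]MK-912 for 60 min at 25 °C.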

[3] = target: T3, rat adrenergic α1B receptor (Rattus norvegicus, UniProt P15823); test: Radioligand binding, adrenergic α1B ([3H]Prazosin); set-up: species or system Wistar Rat; conditions: 0.1 μM compound, 0.1 µM
T3 construct: rat adrenergic α1B receptor obtained from Wistar Rat liver; from tissue; host or cells: Wistar rat liver
T3 sequence (P15823 1-515): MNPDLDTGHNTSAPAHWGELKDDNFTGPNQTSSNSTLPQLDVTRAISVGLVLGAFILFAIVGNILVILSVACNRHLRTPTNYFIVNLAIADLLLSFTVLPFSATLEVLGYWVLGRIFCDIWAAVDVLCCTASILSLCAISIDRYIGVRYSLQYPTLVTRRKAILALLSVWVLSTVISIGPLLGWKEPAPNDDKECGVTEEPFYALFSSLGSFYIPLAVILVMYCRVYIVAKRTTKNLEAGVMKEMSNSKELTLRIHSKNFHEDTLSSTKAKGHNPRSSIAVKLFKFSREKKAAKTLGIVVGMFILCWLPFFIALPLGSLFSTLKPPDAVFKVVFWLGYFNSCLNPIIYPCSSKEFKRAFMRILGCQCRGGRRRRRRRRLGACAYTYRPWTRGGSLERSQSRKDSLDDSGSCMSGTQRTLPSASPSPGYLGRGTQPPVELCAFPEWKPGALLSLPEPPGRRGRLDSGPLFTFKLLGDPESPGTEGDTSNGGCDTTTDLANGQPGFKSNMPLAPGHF
Outline: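 Rat α1B receptor from Wistar rat liver was incubated with 0.25 nM [3H]prazosin for 60 min at 25 °C in 50 mM Tris-HCl, pH 7.4, 0.5 mM EDTA. Non-specific binding was defined with 10 μM phentolamine. Bound radioligand was measured by filtration and counting, reported as percent inhibition of specific binding.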

Question: `CN1CCc2c(c3cc(Cl)ccc3n2CC(C)(O)c2ccc(C(F)(F)F)nc2)C1` (single isomer, unassigned) [143b] was tested. Which “Percentage inhibition of ligand binding, Adrenergic α2B” value (“Percentage inhibition … Adrenergic α2B” below) ([1]; 0.03 μM compound) did it give?
Answer: 49%

Question: And the “Percentage inhibition of ligand binding, Adrenergic α2A” value (from here on “Percentage inhibition … Adrenergic α2A”) [2]?
Answer: 0%

Question: And the “Percentage inhibition of ligand binding, Adrenergic α1B” value (“Percentage inhibition … Adrenergic α1B” for short) [3]?
Answer: 17%

Question: With `Cc1ccc2c(c1)c1c(n2CC(C)(OC(=O)C(C)C)c2cccnc2)CCN(C)C1` (single isomer, unassigned) [146a] as the compound, how does the “Percentage inhibition … Adrenergic α2B” value ([1]; 0.03 μM compound, 0.03 µM) read?
Answer: 37%

Question: And the “Percentage inhibition … Adrenergic α2A” value ([2]; 0.1 µM)?
Answer: −1%

Question: What about the “Percentage inhibition … Adrenergic α1B” value [3] of the same compound?
Answer: 41%

Question: How did the “Percentage inhibition … Adrenergic α2B” value ([1]; 0.03 μM compound, 0.03 µM) turn out when `Cc1ccc2c(c1)c1c(n2CC(C)(OC(=O)C(C)C)c2cccnc2)CCN(C)C1` (single isomer, unassigned) [146b] was run?
Answer: 63%

Question: And the “Percentage inhibition … Adrenergic α2A” value ([2]; 0.1 µM)?
Answer: 21%

Question: What about the “Percentage inhibition … Adrenergic α1B” value [3] of the same compound?
Answer: 11%

Question: `Cc1cnc2c(c1)c1c(n2CC(C)(O)c2ccc(C)nc2)CCN2CCCC12` (single isomer, unassigned) [148a] was tested. Which “Percentage inhibition … Adrenergic α2B” value ([1]; 0.03 μM compound, 0.03 µM) did it give?
Answer: 52%

Question: What about the “Percentage inhibition … Adrenergic α2A” value ([2]; 0.1 µM) of the same compound?
Answer: −5%

Question: And the “Percentage inhibition … Adrenergic α1B” value [3]?
Answer: 23%

Question: Which results are given for `Cc1cnc2c(c1)c1c(n2CC(C)(O)c2ccc(C)nc2)CCN2CCCC12` (single isomer, unassigned) [148c]?
Answer: Percentage inhibition of ligand binding, Adrenergic α2B ([1]; 0.03 μM compound, 0.03 µM): 16%; Percentage inhibition of ligand binding, Adrenergic α2A ([2]; 0.1 µM): −1%; Percentage inhibition of ligand binding, Adrenergic α1B [3]: 6%

Question: Which “Percentage inhibition … Adrenergic α2B” value ([1]; 0.03 μM compound, 0.03 µM) does the source give for `Cc1ccc2c(c1)c1c(n2CC(c2ccncc2)N(C)C)CCN(C)C1` (single isomer, unassigned) [150a] here?
Answer: 88% and 96%

Question: And the “Percentage inhibition … Adrenergic α2B” value ([1]; 0.1 μM compound)?
Answer: 100%

Question: What about the “Percentage inhibition … Adrenergic α2A” value ([2]; 0.1 µM) of the same compound?
Answer: 16%

Question: What about the “Percentage inhibition … Adrenergic α1B” value [3] of the same compound?
Answer: 16%

Question: Which “Percentage inhibition … Adrenergic α2B” value ([1]; 0.03 μM compound) does the source give for `Cc1ccc2c(c1)c1c(n2CC(N)c2ccncc2)CC2CCC1N2C` (single isomer, unassigned) [155b] here?
Answer: 5%

Question: And the “Percentage inhibition … Adrenergic α2A” value ([2]; 0.1 µM)?
Answer: 5%

Question: What about the “Percentage inhibition … Adrenergic α1B” value [3] of the same compound?
Answer: 1%

Question: Which “Percentage inhibition … Adrenergic α2B” value ([1]; 0.03 μM compound, 0.03 µM) does the source give for `Cc1cnc2c(c1)c1c(n2CC(N)c2ccc(C#N)cc2)CCN(C)C1` (single isomer, unassigned) [159b] here?
Answer: 52%

Question: And the “Percentage inhibition … Adrenergic α2A” value [2]?
Answer: −12%

Question: What about the “Percentage inhibition … Adrenergic α1B” value [3] of the same compound?
Answer: 53%

Question: `Cc1cnc2c(c1)c1c(n2CC(N)c2ccc(C#N)cc2)CCNC1` (single isomer, unassigned) [160a] was tested. Which “Percentage inhibition … Adrenergic α2B” value ([1]; 0.03 μM compound, 0.03 µM) did it give?
Answer: 43%

Question: What about the “Percentage inhibition … Adrenergic α2A” value ([2]; 0.1 µM) of the same compound?
Answer: −12%

Question: What about the “Percentage inhibition … Adrenergic α1B” value [3] of the same compound?
Answer: 35%

Question: `Cc1cnc2c(c1)c1c(n2CC(N)c2ccc(C#N)cc2)CCNC1` (single isomer, unassigned) [160b] was tested. Which “Percentage inhibition … Adrenergic α2B” value ([1]; 0.03 μM compound, 0.03 µM) did it give?
Answer: 41%

Question: What about the “Percentage inhibition … Adrenergic α2A” value ([2]; 0.1 µM) of the same compound?
Answer: 5%

Question: What about the “Percentage inhibition … Adrenergic α1B” value [3] of the same compound?
Answer: 65%
